Test results reported in ChEMBL document CHEMBL4359822, “Design, synthesis of 4,5-diazafluorene derivatives and their anticancer activity via targeting telomeric DNA G-quadruplex” (Eur J Med Chem, 2019).
Activity calls are given as the source filed them. No cut-off for these calls is given here.

What was measured:
[1] = Binding affinity to Tel-26nt G-rich DNA (unknown origin) assessed as change in melting temperature at 2 uM by UV-vis spectrophotometry (reference value: 38.33 +/- 0.07 degreeC)
[2] = Binding affinity to Tel-26nt mutated-single-stranded DNA (unknown origin) at 4 to 16 uM measured after each titration for 15 mins during 24 hrs incubation by circular dichroism analysis
[3] = Binding affinity to biotinylated Tel-26nt G-rich DNA (unknown origin) assessed as dissociation rate constant by SPR analysis
[4] = system: AGS; assay: Inhibition of cell migration in human AGS cells at 0.1 uM incubated for 48 hrs by wound healing assay relative to control; format: functional
[5] = system: HepG2; assay: Antiproliferative activity against human HepG2 cells incubated for 36 hrs by CCK8 assay; format: functional, cell-based; conditions: HepG2, 36 h
[6] = Binding affinity to Tel26nt double stranded DNA (unknown origin) at 24 uM incubated for 24 hrs by EMSA
[7] = Binding affinity to Tel-26nt G-rich DNA (unknown origin) at 10 uM by UV-Vis spectrophotometric analysis
[8] = system: MCF7; assay: Inhibition of cell migration in human MCF7 cells at 0.4 uM incubated for 48 hrs by wound healing assay relative to control; format: functional; conditions: MCF7, 48 h
[9] = Binding affinity to biotinylated Tel26nt double stranded DNA (unknown origin) assessed as association rate constant by SPR analysis
[10] = Binding affinity to 26-nt telomeric G-rich RNA (unknown origin) at 24 uM incubated for 24 hrs by EMSA
[11] = Binding affinity to biotinylated Tel26nt double stranded DNA (unknown origin) assessed as dissociation rate constant by SPR analysis
[12] = Binding affinity to Tel-26nt G-rich DNA (unknown origin) incubated for 24 hrs by EMSA
[13] = Selectivity index, ratio of IC50 for human MRC5 cells to IC50 for human AGS cells; format: toxicity; conditions: MRC5 cells versus AGS cells, read-out: Ratio IC50
[14] = system: A549; assay: Inhibition of cell migration in human A549 cells at 0.1 uM incubated for 48 hrs by wound healing assay relative to control; format: functional; conditions: A549, 48 h
[15] = system: HepG2; assay: Antiproliferative activity against human HepG2 cells at 10 uM incubated for 36 hrs by CCK8 assay; format: functional, cell-based
[16] = system: HepG2; assay: Inhibition of cell migration in human HepG2 cells at 0.1 uM incubated for 48 hrs by wound healing assay relative to control; format: functional; conditions: HepG2, 48 h
[17] = system: MRC5; assay: Antiproliferative activity against human MRC5 cells incubated for 36 hrs by CCK8 assay; format: cell-based; conditions: MRC5, 36 h
[18] = system: HepG2; assay: Inhibition of cell migration in human HepG2 cells at 0.2 uM incubated for 48 hrs by wound healing assay relative to control; format: functional; conditions: HepG2, 48 h
[19] = Selectivity index, ratio of IC50 for human MRC5 cells to IC50 for human A549 cells; format: toxicity; conditions: MRC5 cells versus A549 cells, read-out: Ratio IC50
[20] = system: HepG2; assay: Inhibition of cell migration in human HepG2 cells at 0.4 uM incubated for 48 hrs by wound healing assay relative to control; format: functional; conditions: HepG2, 48 h
[21] = system: MCF7; assay: Antiproliferative activity against human MCF7 cells at 10 uM incubated for 36 hrs by CCK8 assay; format: functional, cell-based
[22] = Selectivity ratio of binding affinity to biotinylated Tel26nt double stranded DNA (unknown origin) to binding affinity to biotinylated Tel-26nt G-rich DNA (unknown origin)
[23] = Binding affinity to Tel-26nt C-rich DNA (unknown origin) at 24 uM incubated for 24 hrs by EMSA
[24] = system: AGS; assay: Antiproliferative activity against human AGS cells at 10 uM incubated for 36 hrs by CCK8 assay; format: functional, cell-based
[25] = biological target: Telomerase reverse transcriptase (Homo sapiens) (UniProt O14746); assay: Inhibition of telomerase activity in human A549 cells at 8 uM by TRAP assay relative to control; format: cell-based
[26] = system: A549; assay: Antiproliferative activity against human A549 cells at 10 uM incubated for 36 hrs by CCK8 assay; format: functional, cell-based
[27] = Binding affinity to Tel-26nt G-rich DNA (unknown origin) assessed as change in melting temperature at 8 uM by UV-vis spectrophotometry
[28] = Binding affinity to Tel-26nt mutated-single-stranded DNA (unknown origin) at 24 uM incubated for 24 hrs by EMSA
[29] = Binding affinity to Tel-26nt G-rich DNA (unknown origin) assessed as change in melting temperature by UV-vis spectrophotometry
[30] = biological target: Telomerase reverse transcriptase (Homo sapiens) (UniProt O14746); assay: Inhibition of telomerase activity in human A549 cells at 2 to 8 uM by TRAP assay; format: cell-based
[31] = Binding affinity to Tel-26nt G-rich DNA (unknown origin) at 4 to 16 uM measured after each titration for 15 mins during 24 hrs incubation by circular dichroism analysis
[32] = Binding affinity to biotinylated Tel-26nt G-rich DNA (unknown origin) assessed as association equilibrium constant by SPR analysis
[33] = Binding affinity to Tel-26nt G-rich DNA (unknown origin) at 12 uM incubated for 24 hrs by EMSA
[34] = Binding affinity to biotinylated Tel26nt double stranded DNA (unknown origin) assessed as association equilibrium constant by SPR analysis
[35] = system: AGS; assay: Antiproliferative activity against human AGS cells incubated for 36 hrs by CCK8 assay; format: functional, cell-based
[36] = Selectivity index, ratio of IC50 for human MRC5 cells to IC50 for human HEPG2 cells
[37] = system: MCF7; assay: Inhibition of cell migration in human MCF7 cells at 0.1 uM incubated for 48 hrs by wound healing assay relative to control; format: functional; conditions: MCF7, 48 h
[38] = Binding affinity to Tel26nt double stranded DNA (unknown origin) at 4 to 16 uM measured after each titration for 15 mins during 24 hrs incubation by circular dichroism analysis
[39] = system: AGS; assay: Inhibition of cell migration in human AGS cells at 0.2 uM incubated for 48 hrs by wound healing assay relative to control; format: functional
[40] = Binding affinity to Tel-26nt G-rich DNA (unknown origin) at => 3 uM incubated for 24 hrs by EMSA
[41] = Binding affinity to biotinylated Tel-26nt G-rich DNA (unknown origin) assessed as association rate constant by SPR analysis
[42] = Binding affinity to biotinylated Tel26nt double stranded DNA (unknown origin) at 1:1 ratio of test compound to DNA by SPR analysis
[43] = system: A549; assay: Inhibition of cell migration in human A549 cells at 0.4 uM incubated for 48 hrs by wound healing assay relative to control; format: functional; conditions: A549, 48 h
[44] = system: A549; assay: Inhibition of cell migration in human A549 cells at 0.2 uM incubated for 48 hrs by wound healing assay relative to control; format: functional; conditions: A549, 48 h
[45] = Binding affinity to Tel-26nt G-rich DNA (unknown origin) assessed as change in melting temperature at 8 uM by UV-vis spectrophotometry (reference value: 38.33 +/- 0.07 degreeC)
[46] = system: MCF7; assay: Antiproliferative activity against human MCF7 cells incubated for 36 hrs by CCK8 assay; format: functional, cell-based; conditions: MCF7, 36 h
[47] = Binding affinity to Tel-26nt G-rich DNA (unknown origin) assessed as change in melting temperature at 4 uM by UV-vis spectrophotometry (reference value: 38.33 +/- 0.07 degreeC)
[48] = Selectivity index, ratio of IC50 for human MRC5 cells to IC50 for human MCF7 cells; format: toxicity; conditions: MRC5 cells versus MCF7 cells, read-out: Ratio IC50
[49] = system: AGS; assay: Inhibition of cell migration in human AGS cells at 0.4 uM incubated for 48 hrs by wound healing assay relative to control; format: functional
[50] = system: A549; assay: Antiproliferative activity against human A549 cells incubated for 36 hrs by CCK8 assay; format: functional, cell-based; conditions: A549, 36 h
[51] = Binding affinity to biotinylated Tel-26nt G-rich DNA (unknown origin) at 1:1 ratio of test compound to DNA by SPR analysis
[52] = Binding affinity to Tel-26nt G-rich DNA (unknown origin) at 0.25 :1 to 6 : 1 ratio of test compound to DNA measured after each titration for 15 mins during 24 hrs incubation by circular dichroism analysis
[53] = system: MCF7; assay: Inhibition of cell migration in human MCF7 cells at 0.2 uM incubated for 48 hrs by wound healing assay relative to control; format: functional; conditions: MCF7, 48 h

Sequence of Telomerase reverse transcriptase (Homo sapiens) (O14746 whole entry): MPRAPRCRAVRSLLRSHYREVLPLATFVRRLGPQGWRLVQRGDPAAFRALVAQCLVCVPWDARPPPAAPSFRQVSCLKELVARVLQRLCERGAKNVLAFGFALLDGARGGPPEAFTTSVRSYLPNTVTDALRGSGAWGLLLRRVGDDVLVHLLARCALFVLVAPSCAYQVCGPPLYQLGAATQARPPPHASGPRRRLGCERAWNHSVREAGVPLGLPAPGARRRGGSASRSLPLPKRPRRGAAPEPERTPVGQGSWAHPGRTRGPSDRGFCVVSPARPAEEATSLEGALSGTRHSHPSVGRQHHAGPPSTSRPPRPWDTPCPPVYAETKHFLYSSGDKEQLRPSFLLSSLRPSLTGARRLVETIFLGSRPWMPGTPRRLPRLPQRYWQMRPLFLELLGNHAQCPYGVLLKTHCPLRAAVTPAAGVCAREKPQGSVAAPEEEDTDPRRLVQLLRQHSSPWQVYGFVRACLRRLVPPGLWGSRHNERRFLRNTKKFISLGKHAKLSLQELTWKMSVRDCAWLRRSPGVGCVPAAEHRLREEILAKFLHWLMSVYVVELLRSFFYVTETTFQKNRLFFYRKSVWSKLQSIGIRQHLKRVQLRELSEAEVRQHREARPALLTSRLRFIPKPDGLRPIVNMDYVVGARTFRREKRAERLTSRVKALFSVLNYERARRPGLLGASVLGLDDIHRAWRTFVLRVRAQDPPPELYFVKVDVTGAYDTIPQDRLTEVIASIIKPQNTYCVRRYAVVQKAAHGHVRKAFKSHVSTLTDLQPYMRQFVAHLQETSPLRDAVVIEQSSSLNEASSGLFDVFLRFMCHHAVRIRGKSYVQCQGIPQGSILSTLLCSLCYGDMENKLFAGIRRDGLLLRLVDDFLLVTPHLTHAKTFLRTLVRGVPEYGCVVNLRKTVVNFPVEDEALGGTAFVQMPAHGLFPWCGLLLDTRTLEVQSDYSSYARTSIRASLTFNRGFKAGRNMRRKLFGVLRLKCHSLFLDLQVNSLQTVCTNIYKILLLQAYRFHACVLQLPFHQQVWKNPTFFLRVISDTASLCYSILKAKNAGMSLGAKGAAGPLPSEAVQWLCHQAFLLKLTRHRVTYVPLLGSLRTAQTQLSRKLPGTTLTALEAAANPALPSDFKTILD

With CN(C)CCCn1cc(C=C2c3cccnc3-c3ncccc32)c(-c2ccc(Br)cc2)n1 the Tm [1] was 48.6 °C, the Activity [2] was “inactive” and the Kd [3] was 9.49 ×10⁻² /s. For the same molecule, the inhibition at 0.1 µM [4] was 52.2%, the IC50 [5] was 3.48 µM and the Activity [6] was “Active”. The Activity [7] was “Active”, the inhibition at 0.4 µM [8] was 67.3% and the Ka [9] was 1.13 ×10³ /M/s. The Activity [10] was “inactive”, the Kd [11] was 2.58 ×10⁻² /s and the Activity [12] was “Dose-dependent effect”. The selectivity ratio [13] was 4.25, the inhibition at 0.1 µM [14] was 22.3% and the “growth inhibition (GI)” value [15] was “Active”. The inhibition at 0.1 µM [16] was 27.9%, the IC50 [17] was 7.92 µM and the inhibition at 0.2 µM [18] was 49.3%. The selectivity ratio [19] was 7.01, the inhibition at 0.4 µM [20] was 69.3% and the “growth inhibition (GI)” value [21] was “Active”. For the same molecule, the Selectivity ratio [22] was > 1000, the Activity [23] was “inactive” and the “growth inhibition (GI)” value [24] was “Active”. For the same molecule, the inhibition [25] was 61.7%, the “growth inhibition (GI)” value [26] was “Active” and the ΔTm [27] was 24.3 °C. The Activity [28] was “inactive”, the deltaTm [29] was “Dose-dependent effect” and the inhibition [30] was “Active”. The Activity [31] was “Active”, the KA [32] was 7.04 ×10⁷ /M and the Activity [33] was “Active”. For the same molecule, the KA [34] was 4.38 ×10⁴ /M, the IC50 [35] was 1.81 µM and the “Ratio IC50” value [36] was 2.21. The inhibition at 0.1 µM [37] was 31.9%, the Activity [38] was “inactive” and the inhibition at 0.2 µM [39] was 71.7%. The Activity [40] was “Active”, the Ka [41] was 6.68 ×10⁶ /M/s and the Activity [42] was “inactive”. It also gave an inhibition at 0.4 µM [43] of 84.5%, an inhibition at 0.2 µM [44] of 61.7% and a Tm [45] of 44.9 °C. For the same molecule, the IC50 [46] was 5.27 µM, the Tm [47] was 53.1 °C and the selectivity ratio [48] was 1.46. For the same molecule, the inhibition at 0.4 µM [49] was 89.8%, the IC50 [50] was 1.13 µM and the Activity [51] was “Active”. The Activity [52] was “Active” and the inhibition at 0.2 µM [53] was 50.3%.
